Source: patent US20230021483A1, “[…] […] METHOD AND CLASSIFICATION OF PHARMACEUTICAL COMPONENTS BY USING TRANSCRIPTOMES” (National Institutes of Biomedical Innovation, Health and …, priority 2016, published 2023)

System: preferentially upregulated genes in LV, SP, LN
Assay: Z-score-based differential gene expression analysis (adjuvant group- or adjuvant-associated genes, 40 module mapping, TargetMine annotation)
Type: in vivo, C57BL/6 mice
Settings: ID
In short: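 Gene groups for each organ were built from combined z-score cutoffs across adjuvants, ranging from z>1 to z>3. Scores came from fold changes standardized per gene over the whole organ data set, with the three replicate z-scores added per adjuvant; sums above 3 marked preferential expression.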

SMILES: Cc1ccc2c(=O)c3cccc(CC(=O)O)c3oc2c1C [DMXAA, 5,6-dimethylxanthenone-4-acetic acid]
- z sum, 1428027_at LOC100653389 (LN, Modules 26): −2.22
- z sum, 1419721_at Niacr1 (LN, Modules 27): −1.88
- z sum, 1418424_at Tnfaip6 (LN, Modules 29): −1.91
- z sum, 1419534_at Olr1 (LN, Modules 29): −1.6
- z sum, 1421457_a_at Samsn1 (LN, Modules 29): −2.04
- z sum, 1422305_at Ifnb1 (LN, Modules 29): −1.99
- z sum, 1423028_at Ifna2 (LN, Modules 29): −2.04
- z sum, 1425837_a_at Ccrn4l (LN, Modules 29): −1.85
- z sum, 1436387_at C330006P03Rik///Homer1 (LN, Modules 29): −2.24
- z sum, 1439349_at Sbno2 (LN, Modules 29): −1.84
- z sum, 1444010_at Eif4e (LN, Modules 29): −1.94
- z sum, 1448325_at Ppp1r15a (LN, Modules 29): −1.63
- z sum, 1449311_at Bach1 (LN, Modules 29): −1.97
- z sum, 1450297_at Il6 (LN, Modules 29): −1.88
- z sum, 1455197_at Rnd1 (LN, Modules 29): −1.86
- z sum, 1455899_x_at Socs3 (LN, Modules 29): −1.79
- z sum (LN, Modules 34): −2.09
- z sum, 1417252_at Ptgs2 (LN, Modules 34): −1.55
- z sum, 1417263_at Ptgs2 (LN, Modules 34): −1.77
- z sum, 1421473_at Il1a (LN, Modules 34): −1.71
- z sum, 1439981_at Tespa1 (LN, Modules 35): −1.8
- z sum, 1441843_s_at 5230400M03Rik (LN, Modules 35): −2.25
- z sum, 1442556_at --- (LN, Modules 35): −2.03
- z sum, 1443414_at C78513 (LN, Modules 35): −2.02
- z sum, 1444598_at --- (LN, Modules 35): −2
- z sum, 1445534_at --- (LN, Modules 35): −2
- z sum, 1446245_at --- (LN, Modules 35): −2.34
- z sum, 1457944_at --- (LN, Modules 35): −2.16
- z sum, 1458376_at B930025B16Rik (LN, Modules 35): −2.11
- z sum, 1459144_at --- (LN, Modules 35): −2.06
- z sum, 1425687_at Cflar (LN, Modules 36): −1.76
- z sum, 1427736_a_at Ccrl2 (LN, Modules 36): −2.22
- z sum, 1449169_at Has2 (LN, Modules 36): −2.25
- z sum, 1453636_at Pcgf5 (LN, Modules 36): −2.11
- z sum, 1457888_at --- (LN, Modules 36): −2.02
- z sum, 1419508_at Ripk1 (LN, Modules 37): −2.04
- z sum, 1421578_at Ccl4 (LN, Modules 37): −1.85
- z sum, 1421679_a_at Cdkn1a (LN, Modules 37): −1.99
- z sum, 1424638_at Cdkn1a (LN, Modules 37): −1.71
- z sum, 1433508_at Klf6 (LN, Modules 37): −1.54
- z sum, 1434350_at Csrnp1 (LN, Modules 37): −1.99
- z sum, 1439680_at Tnfsf10 (LN, Modules 37): −2.27
- z sum, 1448724_at Cish (LN, Modules 37): −1.56
- z sum, 1451340_at Arid5a (LN, Modules 37): −2.28
- z sum, 1453851_a_at Gadd45g (LN, Modules 37): −2
- z sum, 1457404_at Nfkbiz (LN, Modules 37): −2.06
- z sum, 1458589_at --- (LN, Modules 37): −1.59
- z sum, 1422054_a_at 5kil (LN, Modules 40): −1.69
- z sum, 1428735_at Cd69 (LN, Modules 40): −2.42
- Adar 1425405_a_at (Group G1, Modules 20) (LV, sample x1): 2.03
- Adar 1434268_at (Group G1, Modules 20) (LV, sample x1): 2.15
- Ddx58 1436562_at (Group G1, Modules 20) (LV, sample x1): 2.07
- Ddx58 1456890_at (Group G1, Modules 20) (LV, sample x1): 1.67
- Eif2ak2 1422005_at (Group G1, Modules 20) (LV, sample x1): 1.36
- G3bp2 1421323_a_at (Group G1, Modules 20) (LV, sample x1): 1.32
- Gm9706///Isg15 1431591_s_at (Group G1, Modules 20) (LV, sample x1): 1.28
- H2-T10///H2-T22///H2-T9 1449875_s_at (Group G1, Modules 20) (LV, sample x1): 1.27
- Ifih1 1426276_at (Group G1, Modules 20) (LV, sample x1): 1.25
- Ifit1 1450783_at (Group G1, Modules 20) (LV, sample x1): 2.21
- Ifit3 1449025_at (Group G1, Modules 20) (LV, sample x1): 1.39
- Irf7 1417244_a_at (Group G1, Modules 20) (LV, sample x1): 1.05
- Irgm1 1418825_at (Group G1, Modules 20) (LV, sample x1): 1.39
- Mndal 1426906_at (Group G1, Modules 20) (LV, sample x1): 1.42
- Pml 1448757_at (Group G1, Modules 20) (LV, sample x1): 1.62
- Pml 1456103_at (Group G1, Modules 20) (LV, sample x1): 2.18
- Rnf213 1455500_at (Group G1, Modules 20) (LV, sample x1): 1.79
- Rsad2 1436058_at (Group G1, Modules 20) (LV, sample x1): 1.56
- Shisa5 1423986_a_at (Group G1, Modules 20) (LV, sample x1): 2.03
- Shisa5 1437503_a_at (Group G1, Modules 20) (LV, sample x1): 2.12
- Stat1 1450033_a_at (Group G1, Modules 20) (LV, sample x1): 1.5
